Reference: PubChem BioAssay AID248 (DTP/NCI, 2004)
Toxic doses and inconclusive results are not listed.

Test system: L1210 leukemia ip in BDF1 mice, survival T/C
Assay: NCI In Vivo Anticancer Drug Screen. Data for tumor model L1210 Leukemia (intraperitoneal) in B6D2F1 (BDF1) mice
Details: endpoint: mean survival time, higher = longer survival
How it was run: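 Tumor cells were implanted, animals were treated, and survival was followed. The result divides the treated measurement by the vehicle-control measurement.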

[1] = dose: 100.0 mg/kg/injection, schedule: Q01DX009 (ip), vehicle: saline
[2] = dose: 100.0 mg/kg/injection, schedule: Q04DX003 (ip), vehicle: saline
[3] = dose: 200.0 mg/kg/injection, schedule: Q01DX009 (ip), vehicle: saline
[4] = dose: 200.0 mg/kg/injection, schedule: Q04DX003 (ip), vehicle: saline
[5] = dose: 400.0 mg/kg/injection, schedule: Q01DX009 (ip), vehicle: saline
[6] = dose: 400.0 mg/kg/injection, schedule: Q04DX003 (ip), vehicle: saline
[7] = dose: 100.0 mg/kg/injection, schedule: Q01DX009 (ip), vehicle: Klucel (hydroxypropylcellulose) (HPC)
[8] = dose: 200.0 mg/kg/injection, schedule: Q01DX009 (ip), vehicle: Klucel (hydroxypropylcellulose) (HPC)
[9] = dose: 400.0 mg/kg/injection, schedule: Q01DX009 (ip), vehicle: Klucel (hydroxypropylcellulose) (HPC)

For `COc1ccc(CNCC(=O)O)cc1`, the T/C [1] was 100 % of control, the T/C [2] was 96 % of control and the T/C [3] was 100 % of control. For the same molecule, the T/C [4] was 98 % of control, the T/C [5] was 105 % of control and the T/C [6] was 96 % of control.
For `Cc1nn2c(C(=O)O)nnc2s1`, the T/C (dose: 100.0 mg/kg/injection, schedule: Q01DX001 (ip), vehicle: carboxymethylcellulose (CMC)) was 93 % of control, the T/C (dose: 200.0 mg/kg/injection, schedule: Q01DX001 (ip), vehicle: carboxymethylcellulose (CMC)) was 98 % of control and the T/C (dose: 400.0 mg/kg/injection, schedule: Q01DX001 (ip), vehicle: carboxymethylcellulose (CMC)) was 93 % of control.
In the case of `OCC1OC(n2cnc3c(NO)nc(NO)nc32)C(O)C1O` (stereo unspecified), the T/C (dose: 30.0 mg/kg/injection, schedule: Q01DX009 (ip), vehicle: saline) is reported as 151 % of control and the T/C (dose: 150.0 mg/kg/injection, schedule: Q01DX001 (ip), vehicle: saline) is reported as 115 % of control.
For `CC12CCC(O)CC1CCC1C2CCC2(C)C(c3ccc(=O)oc3)C(O)C3OC132` (stereo unspecified), the T/C (dose: 1.87 mg/kg/injection, schedule: Q01DX009 (ip), vehicle: Klucel (hydroxypropylcellulose) (HPC)) was 105 % of control, the T/C (dose: 3.5 mg/kg/injection, schedule: Q01DX009 (ip), vehicle: Klucel (hydroxypropylcellulose) (HPC)) was 96 % of control and the T/C (dose: 7.0 mg/kg/injection, schedule: Q01DX009 (ip), vehicle: Klucel (hydroxypropylcellulose) (HPC)) was 91 % of control.
With `O=[N+]([O-])c1cccc(Oc2ncccc2[N+](=O)[O-])c1` the T/C [7] was 95 % of control, the T/C (dose: 100.0 mg/kg/injection, schedule: Q04DX003 (ip), vehicle: other) was 105 % of control and the T/C [8] was 102 % of control. The T/C (dose: 200.0 mg/kg/injection, schedule: Q04DX003 (ip), vehicle: other) was 103 % of control, the T/C [9] was 94 % of control and the T/C (dose: 400.0 mg/kg/injection, schedule: Q04DX003 (ip), vehicle: other) was 100 % of control.
For `CCCCCCC(C)OCC(=O)c1ccccc1` (stereo unspecified), the T/C (dose: 100.0 mg/kg/injection, schedule: Q04DX002 (ip), vehicle: saline) was 94 % of control and the T/C (dose: 200.0 mg/kg/injection, schedule: Q04DX002 (ip), vehicle: saline) was 91 % of control.
In the case of `O=C(O)c1ccc(CC2CCCC2)cc1`, the T/C (dose: 100.0 mg/kg/injection, schedule: Q01DX001 (ip), vehicle: Klucel (hydroxypropylcellulose) (HPC)) is reported as 96 % of control, the T/C (dose: 100.0 mg/kg/injection, schedule: Q04DX003 (ip), vehicle: Klucel (hydroxypropylcellulose) (HPC)) is reported as 93 % of control and the T/C (dose: 200.0 mg/kg/injection, schedule: Q01DX001 (ip), vehicle: Klucel (hydroxypropylcellulose) (HPC)) is reported as 103 % of control. The T/C (dose: 200.0 mg/kg/injection, schedule: Q04DX003 (ip), vehicle: Klucel (hydroxypropylcellulose) (HPC)) was 93 % of control, the T/C (dose: 400.0 mg/kg/injection, schedule: Q01DX001 (ip), vehicle: Klucel (hydroxypropylcellulose) (HPC)) was 97 % of control and the T/C (dose: 400.0 mg/kg/injection, schedule: Q04DX003 (ip), vehicle: Klucel (hydroxypropylcellulose) (HPC)) was 98 % of control.
In the case of `CC/C(=N/NC(N)=O)c1ccccc1Cl`, the T/C (dose: 100.0 mg/kg/injection, schedule: Q01DX001 (ip), vehicle: saline) is reported as 97 % of control, the T/C (dose: 200.0 mg/kg/injection, schedule: Q01DX001 (ip), vehicle: saline) is reported as 96 % of control and the T/C (dose: 400.0 mg/kg/injection, schedule: Q01DX001 (ip), vehicle: saline) is reported as 106 % of control.
With `CN(C)C(=O)c1cccc(N)c1` the T/C [1] was 101 % of control, the T/C [2] was 103 % of control and the T/C [3] was 98 % of control. The T/C [4] was 100 % of control, the T/C [5] was 90 % of control and the T/C [6] was 102 % of control.
In the case of `NC(=O)CNC(c1ccccc1)C(O)c1ccccc1` (stereo unspecified), the T/C [7] is reported as 96 % of control, the T/C (dose: 100.0 mg/kg/injection, schedule: Q04DX002 (ip), vehicle: Klucel (hydroxypropylcellulose) (HPC)) is reported as 91 % of control and the T/C [8] is reported as 98 % of control. The T/C (dose: 200.0 mg/kg/injection, schedule: Q04DX002 (ip), vehicle: Klucel (hydroxypropylcellulose) (HPC)) was 102 % of control, the T/C [9] was 93 % of control and the T/C (dose: 400.0 mg/kg/injection, schedule: Q04DX002 (ip), vehicle: Klucel (hydroxypropylcellulose) (HPC)) was 102 % of control.
`C/C=C/C(=O)OCC` (tested in a mixture with another compound) was tested, and the T/C (dose: 50.0 mg/kg/injection, schedule: Q01DX009 (ip), vehicle: saline with Tween-80) was 97 % of control, the T/C (dose: 100.0 mg/kg/injection, schedule: Q01DX009 (ip), vehicle: saline with Tween-80) was 93 % of control and the T/C (dose: 200.0 mg/kg/injection, schedule: Q01DX009 (ip), vehicle: saline with Tween-80) was 93 % of control.
